In paper PMC11672292, “Discovery of Balasubramide Derivative with Tissue‐Specific Anti‐Inflammatory Activity Against Acute Lung Injury by Targeting VDAC1” (Advanced Science, 2024):

Test system: mouse BMDMs
Assay: LPS-induced TNF-α release in BMDMs (ELISA)
Type: cell-based
Details: BMDM, read-out: IC50, inhibition of LPS-induced TNF-α release
Experimental: The anti‐inflammatory effects of all (+)‐balasubramide derivatives were evaluated in Lipopolysaccharide (LPS, L2630, Sigma–Aldrich, USA)‐induced macrophage inflammation model. RAW264.7 cells were pretreated with various compounds or (+)3C‐20 at different concentrations for 3 h, and then stimulated with LPS (100 ng mL^−1) for 2 h for the detection of pro‐inflammatory factors expressions. Similarly, following 3 h co‐incubation with (+)3C‐20, mouse BMDMs were stimulated with LPS (100 ng mL^−1) for 3 h. TNF‐α protein in the culture medium supernatant was measured by a commercial ELISA kit (#1 217 202, DAKEWE, China) following the manufacture's protocols.

O=C(CCc1ccc(C(F)(F)F)cc1)O[C@@H]1C(=O)NCCc2c([nH]c3ccccc23)[C@H]1c1ccc(C(F)(F)F)cc1 [(+)3C-20]
IC50: 3.64 µM
